Consider 30 molecules from US10758534B2 (Vertex Pharmaceuticals Incorporated, priority 2014, dated 2020).

In general, EC30 refers to the concentration needed for an effect of 30%.

The target in one test is T1, F508del (Homo sapiens, UniProt P13569, DEL508-508).
T1 construct: expressed in transfected cells
T1 sequence (P13569 with tags, fused parts or gaps DEL508-508): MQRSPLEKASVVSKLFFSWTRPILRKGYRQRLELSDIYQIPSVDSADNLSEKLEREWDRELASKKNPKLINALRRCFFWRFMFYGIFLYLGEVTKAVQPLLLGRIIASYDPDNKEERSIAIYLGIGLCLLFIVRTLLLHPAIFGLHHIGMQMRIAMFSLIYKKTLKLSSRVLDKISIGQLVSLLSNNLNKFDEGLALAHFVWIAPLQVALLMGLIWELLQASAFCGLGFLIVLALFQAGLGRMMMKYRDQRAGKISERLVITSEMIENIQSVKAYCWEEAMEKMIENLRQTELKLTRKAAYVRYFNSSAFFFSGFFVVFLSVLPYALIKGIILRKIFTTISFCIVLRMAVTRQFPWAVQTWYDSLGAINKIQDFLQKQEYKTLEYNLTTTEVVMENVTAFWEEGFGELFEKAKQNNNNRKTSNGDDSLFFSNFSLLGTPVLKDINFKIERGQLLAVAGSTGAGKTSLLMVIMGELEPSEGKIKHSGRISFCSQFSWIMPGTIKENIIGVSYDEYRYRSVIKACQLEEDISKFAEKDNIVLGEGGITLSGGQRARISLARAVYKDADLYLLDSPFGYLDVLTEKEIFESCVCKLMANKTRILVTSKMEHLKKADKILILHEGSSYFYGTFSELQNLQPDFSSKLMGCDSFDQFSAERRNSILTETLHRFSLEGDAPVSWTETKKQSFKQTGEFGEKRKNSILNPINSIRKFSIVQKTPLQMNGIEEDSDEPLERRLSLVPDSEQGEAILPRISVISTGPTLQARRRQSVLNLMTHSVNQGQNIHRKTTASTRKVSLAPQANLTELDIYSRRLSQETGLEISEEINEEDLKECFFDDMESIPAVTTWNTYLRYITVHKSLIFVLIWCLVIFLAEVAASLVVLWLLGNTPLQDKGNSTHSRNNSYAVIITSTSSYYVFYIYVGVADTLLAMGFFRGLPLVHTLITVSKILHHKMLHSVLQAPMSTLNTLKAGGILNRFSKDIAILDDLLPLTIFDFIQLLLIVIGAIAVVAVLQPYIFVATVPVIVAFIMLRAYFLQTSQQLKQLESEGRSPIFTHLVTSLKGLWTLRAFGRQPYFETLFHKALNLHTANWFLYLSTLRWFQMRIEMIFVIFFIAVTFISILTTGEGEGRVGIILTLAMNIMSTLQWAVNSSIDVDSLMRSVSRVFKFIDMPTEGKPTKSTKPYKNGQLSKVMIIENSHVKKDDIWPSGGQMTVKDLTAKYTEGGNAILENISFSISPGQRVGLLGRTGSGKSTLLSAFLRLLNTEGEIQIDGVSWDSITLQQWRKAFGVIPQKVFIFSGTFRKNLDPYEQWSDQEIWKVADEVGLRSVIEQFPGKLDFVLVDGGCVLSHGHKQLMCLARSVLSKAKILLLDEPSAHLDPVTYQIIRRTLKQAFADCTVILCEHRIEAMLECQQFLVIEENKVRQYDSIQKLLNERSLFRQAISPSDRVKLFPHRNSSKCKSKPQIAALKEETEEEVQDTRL
In words: Protocol 2: FRET membrane potential optical assay (VIPR), identification of correction compounds. Format: cell-based. The following applies: F508del CFTR modulator activity; compounds of Table 1; read-out: EC30. In a few lines:
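FRET read-out (CC2-DMPE donor, DiSBAC2(3) voltage-sensitive acceptor) of membrane depolarization on VIPR II. Corrector candidates incubated 16 hrs at 37° C. with NIH3T3 cells expressing F508del; temperature correction at 27° C. as positive control; stimulation by 10 μM forskolin, 20 μM genistein, chloride-free gluconate bath.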
For the molecule `Cc1c(F)cccc1-c1ccc(C(=O)NS(=O)(=O)c2cccc(N)n2)c(N2C[C@@H](C)CC2(C)C)n1` [Compound 2616, N-[(6-amino-2-pyridyl)sulfonyl]-6-(3-fluoro-2-methyl-phenyl)-2-[(4S)-2,2,4-trimethylpyrrolidin-1-yl]pyridine-3-carboxamide], the EC30 was less than 3000 nM. On the same count and under the same terms, as for `CC1CN(c2ncccc2C(=O)NS(=O)(=O)c2cccc(Oc3ccc(OC(C)(C)C)cc3)n2)C(C)(C)C1` (stereo not drawn) [Compound 2739], the figure is less than 3000 nM; as for `COc1ccc(-c2ccc(C(=O)NS(=O)(=O)c3cccnc3N)c(N3C[C@@H](C)CC3(C)C)n2)cc1OC` [Compound 2664, N-[(2-amino-3-pyridyl)sulfonyl]-6-(3,4-dimethoxyphenyl)-2-[(4S)-2,2,4-trimethylpyrrolidin-1-yl]pyridine-3-carboxamide], less than 3000 nM; as for `CC1CN(c2ncccc2C(=O)NS(=O)(=O)c2cccc(Nc3cccc4ncccc34)n2)C(C)(C)C1` (stereo not drawn) [Compound 2074, N—[[6-(5-quinolylamino)-2-pyridyl]sulfonyl]-2-(2,2,4-trimethylpyrrolidin-1-yl)pyridine-3-carboxamide], 3000 to 10000 nM.

For `Cc1cccc(-c2ccc(C(=O)NS(=O)(=O)c3ccc[nH]c3=O)c(N3C[C@@H](C)CC3(C)C)n2)c1` [Compound 2424, 6-(m-tolyl)-N-[(2-oxo-1H-pyridin-3-yl)sulfonyl]-2-[(4S)-2,2,4-trimethylpyrrolidin-1-yl]pyridine-3-carboxamide], the EC30 was less than 3000 nM.

Take `C[C@@H]1CN(c2nc(-n3cc(OCC(C)(C)C)cn3)ccc2C(=O)NS(=O)(=O)c2cccnc2N)C(C)(C)C1` [Compound 2406, N-[(2-amino-3-pyridyl)sulfonyl]-6-[4-(2,2-dimethylpropoxy)pyrazol-1-yl]-2-[(4S)-2,2,4-trimethylpyrrolidin-1-yl]pyridine-3-carboxamide]: the EC30 was less than 3000 nM. Still for that read-out and setting: the figure for `CC1CN(c2ncc(-c3cccc(C(C)(C)C)c3)cc2C(=O)NS(=O)(=O)c2cccc(N)n2)C(C)(C)C1` (stereo not drawn) [Compound 2180, N-[(6-amino-2-pyridyl)sulfonyl]-5-(3-tert-butylphenyl)-2-(2,2,4-trimethylpyrrolidin-1-yl)pyridine-3-carboxamide] is less than 3000 nM; for `CC1CN(c2ncccc2C(=O)NS(=O)(=O)c2cccc(NC(C)C)n2)C(C)(C)C1` (stereo not drawn) [Compound 2200, N—[[6-(isopropylamino)-2-pyridyl]sulfonyl]-2-(2,2,4-trimethylpyrrolidin-1-yl)pyridine-3-carboxamide] it is 3000 to 10000 nM; for `CCOc1ncc(-c2ccc(C(=O)NS(=O)(=O)c3cccnc3N)c(N3C[C@@H](C)CC3(C)C)n2)cc1C` [Compound 2651, N-[(2-amino-3-pyridyl)sulfonyl]-6-(6-ethoxy-5-methyl-3-pyridyl)-2-[(4S)-2,2,4-trimethylpyrrolidin-1-yl]pyridine-3-carboxamide] it is less than 3000 nM. The same measure, in the same setting: the figure for `Cc1cc(-c2ccc(C(=O)NS(=O)(=O)c3ccc[nH]c3=O)c(N3C[C@@H](C)CC3(C)C)n2)cc(C)c1O` [Compound 2556, 6-(4-hydroxy-3,5-dimethyl-phenyl)-N-[(2-oxo-1H-pyridin-3-yl)sulfonyl]-2-[(4S)-2,2,4-trimethylpyrrolidin-1-yl]pyridine-3-carboxamide] is 3000 to 10000 nM; for `CC1CN(c2ncccc2C(=O)NS(=O)(=O)c2cccc(Oc3ccccc3F)n2)C(C)(C)C1` (stereo not drawn) [Compound 2015, N—[[6-(2-fluorophenoxy)-2-pyridyl]sulfonyl]-2-(2,2,4-trimethylpyrrolidin-1-yl)pyridine-3-carboxamide] it is less than 3000 nM; for `CC(C)COc1cc(F)cc(-c2ccc(C(=O)NS(=O)(=O)N3C[C@H]4C[C@@H]3CO4)c(N3C[C@@H](C)CC3(C)C)n2)c1` [Compound 2347, 6-(3-fluoro-5-isobutoxy-phenyl)-N—[[(1R,4R)-2-oxa-5-azabicyclo[2.2.1]heptan-5-yl]sulfonyl]-2-[(4S)-2,2,4-trimethylpyrrolidin-1-yl]pyridine-3-carboxamide] it is less than 3000 nM.

Consider `Cc1ccc(O)c(-c2ccc(C(=O)NS(=O)(=O)c3cccc(N)n3)c(N3C[C@@H](C)CC3(C)C)n2)c1` [Compound 2034, N-[(6-amino-2-pyridyl)sulfonyl]-6-(2-hydroxy-5-methyl-phenyl)-2-[(4S)-2,2,4-trimethylpyrrolidin-1-yl]pyridine-3-carboxamide], for which the EC30 was less than 3000 nM. Take `CC(C)c1cccc(-c2ccc(C(=O)NS(=O)(=O)c3ccc[nH]c3=O)c(N3C[C@@H](C)CC3(C)C)n2)c1` [Compound 2498, 6-(3-isopropylphenyl)-N-[(2-oxo-1H-pyridin-3-yl)sulfonyl]-2-[(4S)-2,2,4-trimethylpyrrolidin-1-yl]pyridine-3-carboxamide]: the EC30 was less than 3000 nM.

With `CC(C)OC(=O)N1CCC=C(c2ccc(C(=O)NS(=O)(=O)c3cccc(N)n3)c(N3C[C@@H](C)CC3(C)C)n2)C1` [Compound 2622, isopropyl 5-[5-[(6-amino-2-pyridyl)sulfonylcarbamoyl]-6-[(4S)-2,2,4-trimethylpyrrolidin-1-yl]-2-pyridyl]-3,6-dihydro-2H-pyridine-1-carboxylate], the EC30 was less than 3000 nM. On to `Cc1cccc(-c2cnc(N3CC(C)CC3(C)C)c(C(=O)NS(=O)(=O)c3cccc(N)n3)c2)c1` (stereo not drawn) [Compound 2184, N-[(6-amino-2-pyridyl)sulfonyl]-5-(m-tolyl)-2-(2,2,4-trimethylpyrrolidin-1-yl)pyridine-3-carboxamide], for which the EC30 is less than 3000 nM.

For the molecule `CCOc1cc(F)cc(-c2ccc(C(=O)NS(=O)(=O)c3cccnc3N)c(N3C[C@@H](C)CC3(C)C)n2)c1` [Compound 2018, N-[(2-amino-3-pyridyl)sulfonyl]-6-(3-ethoxy-5-fluoro-phenyl)-2-[(4S)-2,2,4-trimethylpyrrolidin-1-yl]pyridine-3-carboxamide], the EC30 was less than 3000 nM. On the same count and under the same terms, as for `CC1CN(c2ncccc2C(=O)NS(=O)(=O)c2cccc(OCc3ccc(Cl)cc3)n2)C(C)(C)C1` (stereo not drawn) [Compound 2585, N—[[6-[(4-chlorophenyl)methoxy]-2-pyridyl]sulfonyl]-2-(2,2,4-trimethylpyrrolidin-1-yl)pyridine-3-carboxamide], the figure is less than 3000 nM. On the same count and under the same terms, as for `CC1CN(c2ncccc2C(=O)NS(=O)(=O)c2cccc(N3CCN(c4ccccc4)CC3)n2)C(C)(C)C1` (stereo not drawn) [Compound 2208, N—[[6-(4-phenylpiperazin-1-yl)-2-pyridyl]sulfonyl]-2-(2,2,4-trimethylpyrrolidin-1-yl)pyridine-3-carboxamide], the figure is less than 3000 nM.

Staying with this test, now noted: Table 3; compounds of Table 1 as modulators of CFTR activity; protocol not stated.
As to `Cc1cc(C)c(Cn2c(C(=O)NS(=O)(=O)c3ccccc3C#N)cc3ccccc32)c(C)c1` [Compound 358], the EC30 entry is “+++ (“+++” means <3 uM)”. The same measure, in the same setting: the entry for `Cc1cc(C)c(Oc2nc(C(C)(C)C)ccc2C(=O)NS(=O)(=O)c2cccc(N)c2)c(C)c1` [Compound 294, N-(3-aminophenyl)sulfonyl-6-tert-butyl-2-(2,4,6-trimethylphenoxy)pyridine-3-carboxamide] is “+++ (“+++” means <3 uM)”; for `COc1ccc(-c2ccc(C(=O)NS(=O)(=O)c3cc[nH]n3)c(Oc3c(C)cc(C)cc3C)n2)c(F)c1` [Compound 374, 6-(2-fluoro-4-methoxy-phenyl)-N-(1H-pyrazol-3-ylsulfonyl)-2-(2,4,6-trimethylphenoxy)pyridine-3-carboxamide] it is “+++ (“+++” means <3 uM)”.

As to `CC1CCN(c2nc3c(cc2C(=O)NS(=O)(=O)c2nccnc2N)CCCC3(C)C)CC1` [Compound 197, N-(3-aminopyrazin-2-yl)sulfonyl-8,8-dimethyl-2-(4-methyl-1-piperidyl)-6,7-dihydro-5H-quinoline-3-carboxamide], the EC30 entry is reported as “+++ (“+++” means <3 uM)”. For the molecule `CCOc1ccc(-c2ccc(C(=O)NS(=O)(=O)c3cc[nH]n3)c(Oc3c(C)cc(C)cc3C)n2)cc1` [Compound 190, 6-(4-ethoxyphenyl)-N-(1H-pyrazol-3-ylsulfonyl)-2-(2,4,6-trimethylphenoxy)pyridine-3-carboxamide], the EC30 entry is “+++ (“+++” means <3 uM)”. On the same count and under the same terms, the entry for `CC(C)COc1cc(F)cc(-c2ccc(C(=O)NS(=O)(=O)c3cccc(N)n3)c(N3CC(C)CC(C)(C)C3)n2)c1` (stereo not drawn) [Compound 560, N-[(6-amino-2-pyridyl)sulfonyl]-6-(3-fluoro-5-isobutoxy-phenyl)-2-(3,3,5-trimethyl-1-piperidyl)pyridine-3-carboxamide] is “+++ (“+++” means <3 uM)”. As to `CC(C1CCCCC1)n1nc(C(C)(C)C)cc1C(=O)NS(=O)(=O)c1cccc(N)c1` (stereo not drawn) [Compound 287, N-(3-aminophenyl)sulfonyl-5-tert-butyl-2-(1-cyclohexylethyl)pyrazole-3-carboxamide], the EC30 result is on record as “+++ (“+++” means <3 uM)”.

For `COCCNc1cccc(S(=O)(=O)NC(=O)c2ccc(C)nc2Oc2c(C)cc(C)cc2C)n1` [Compound 372, N-[[6-(2-methoxyethylamino)-2-pyridyl]sulfonyl]-6-methyl-2-(2,4,6-trimethylphenoxy)pyridine-3-carboxamide], the EC30 entry is “++ (“++” means between 3 uM and 10 uM)”. On the same count and under the same terms, the entry for `CC(C)COc1cc(F)cc(-c2ccc(C(=O)NS(=O)(=O)c3cccc(N)n3)c(N3CC[C@@H](C)C3(C)C)n2)c1` [Compound 657, N-[(6-amino-2-pyridyl)sulfonyl]-6-(3-fluoro-5-isobutoxy-phenyl)-2-[(3R)-2,2,3-trimethylpyrrolidin-1-yl]pyridine-3-carboxamide] is “+++ (“+++” means <3 uM)”; for `Cc1cc(C)c(CN2Cc3ccccc3[C@H]2C(=O)NS(=O)(=O)c2cccc(N)c2)c(C)c1` [Compound 126, (1S)—N-(3-aminophenyl)sulfonyl-2-[(2,4,6-trimethylphenyl)methyl]isoindoline-1-carboxamide] it is “+++ (“+++” means <3 uM)”. Take `Cc1cccc(C)c1Cn1nc(-c2ccc(N(C)C)cc2)cc1C(=O)NS(=O)(=O)c1ccccc1` [Compound 76, N-(benzenesulfonyl)-5-(4-dimethylaminophenyl)-2-[(2,6-dimethylphenyl)methyl]pyrazole-3-carboxamide]: the concentration for an effect of 30% (EC30) result is reported as “+++ (“+++” means <3 uM)”.
